Results on 10 molecules are retold here after patent US8575201B2 (Boehringer Ingelheim International GmbH, priority 2010, dated 2013).

pIC50: −log10 of the molar value.

For assay [1], the system named is biomarkers for myocardial infarction risk. The settings on record: clinical trial; cited from earlier work.
The subject of assay [2] is atherosclerotic plaque. The settings on record: oral dosing, high-fat diet from 2 to 6 months of age; cited from earlier work.
Assay [3] concerns atherosclerotic plaque. Particulars: infusion, treated for four weeks; cited from earlier work.
A further assay relates to proteinuria. The settings on record: clinical trial, human glomerulonephritis; cited from earlier work.
Assay [4] addresses recombinant human FLAP protein (Homo sapiens (Human), UniProt P20292). In words: FLAP binding assay (Scintillation Proximity Assay, displacement of [125I]L-691,831). The settings on record: read-out: FLAP SPA IC50. The essentials:
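Scintillation proximity displacement of an iodinated (125I) FLAP inhibitor by test compounds, using 100,000×g membrane fraction from lysed cells. Final beads 200 μg/well and protein 5 μg/well; plates shaken 2 h before reading.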
For orientation: In a scintillation proximity assay essentially only radioactivity close to the scintillant gives light.

Assay [5] deals with synthesis of LTB4 in human whole blood. Kind of assay: Human whole blood LTB4 production inhibition assay. The settings on record: calcimycin stimulated, read-out: hWB LTB4 IC50. The assay is classed as cell-based. The essentials:
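LTB4 in plasma was quantified by HTRF immunoassay. Before that, compound-treated heparinized whole blood (15 min, 37 °C) received 20 μM final calcimycin for a further 30 min at 37 °C, followed by centrifugation at 1500×g.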

recombinant human FLAP protein, sequence (P20292 whole entry): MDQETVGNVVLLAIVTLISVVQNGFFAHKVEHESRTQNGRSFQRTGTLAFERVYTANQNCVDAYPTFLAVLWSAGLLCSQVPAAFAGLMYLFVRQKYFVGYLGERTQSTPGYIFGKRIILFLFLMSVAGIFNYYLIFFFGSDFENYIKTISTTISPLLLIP

For the molecule `O=C(O)[C@@H](c1ccc(OCc2ccc3ccccc3n2)cc1)C1CCCC1` [DG-031], the “effect on biomarkers for myocardial infarction risk” value in assay [1] is listed as “dose-dependent suppression of several biomarkers”.
Take `CC(C)c1ccc2c(c1)c(SC(C)(C)C)c(CC(C)(C)C(=O)O)n2Cc1ccc(Cl)cc1` [MK-886]: in the assay on atherosclerotic plaque [2], the “decrease in plaque coverage in the aorta” value was 56% and the “decrease in plaque coverage in the aortic root” value is 43%. The “decrease in plaque area in the aortic root” value in the assay with atherosclerotic plaque [3] was around 40%.
With `CC(C)(C)Sc1c(CC(C)(C)C(=O)O)n(Cc2ccc(Cl)cc2)c2ccc(OCc3ccc4ccccc4n3)cc12` [MK-591], the effect on proteinuria entry in the assay on proteinuria is reported as “reduce proteinuria”.
Turning to `Cn1cccc(-c2nc(C3(c4ccc(-c5cnc(N)nc5)nc4)CCC3)no2)c1=O` [Example 77, 3-(3-{1-[6-(2-aminopyrimidin-5-yl)pyridin-3-yl]cyclobutyl}-1,2,4-oxadiazol-5-yl)-1-methylpyridin-2(1H)-one], the pIC50 is 7.29 in assay [4] and 6.31 in assay [5].
Turning to `CC(C)(O)Cn1cc(-c2nc(C3(c4ccc(-c5cnc(N)nc5)nc4)CCC3)no2)cn1` [Example 54, 1-[4-(3-{1-[6-(2-aminopyrimidin-5-yl)pyridin-3-yl]cyclobutyl}-1,2,4-oxadiazol-5-yl)-1H-pyrazol-1-yl]-2-methylpropan-2-ol], the figures for the pIC50 in assay [4] and in assay [5] were 7.55 and 6.92, respectively.
The corresponding values for `COc1ccc(-c2nc(C3(c4ccc(-c5cnc(N)nc5)nc4)CCC3)no2)c(OC)n1` [Example 96, 5-(5-{1-[5-(2,6-dimethoxypyridin-3-yl)-1,2,4-oxadiazol-3-yl]cyclobutyl}pyridin-2-yl)pyrimidin-2-amine] are 8.14 and 5.96.
In the same order, the values of `Cc1cc(-c2nc(C3(c4ccc(-c5cnc(N)nc5)cn4)CCOCC3)no2)n(C)n1` [Example 136, 5-(6-{4-[5-(1,3-dimethyl-1H-pyrazol-5-yl)-1,2,4-oxadiazol-3-yl]tetrahydro-2H-pyran-4-yl}pyridin-3-yl)pyrimidin-2-amine] are 6.27 and below 5.30.
Turning to `CC(CO)n1cc(-c2nc(C3(c4ccc(-c5cnc(N)nc5)nc4)CCC3)no2)cn1` (stereo not shown) [Example 29, 2-[4-(3-{1-[6-(2-aminopyrimidin-5-yl)pyridin-3-yl]cyclobutyl}-1,2,4-oxadiazol-5-yl)-1H-pyrazol-1-yl]propan-1-ol], the pIC50 in assay [4] was 7.46; in assay [5], 6.49.
In the same order, the values of `CC(C)Nc1ccc(-c2nc(C3(c4ccc(-c5cnc(N)nc5)nc4)CCC3)no2)cn1` [Example 114, 5-[5-(1-{5-[6-(propan-2-ylamino)pyridin-3-yl]-1,2,4-oxadiazol-3-yl}cyclobutyl)pyridin-2-yl]pyrimidin-2-amine] are 8.82 and 6.55.
In the same order, the values of `Nc1ncc(-c2ccc(C3(c4noc(-c5cc(N)[nH]n5)n4)CCC3)cn2)cn1` [Example 10, 5-(5-{1-[5-(5-amino-1H-pyrazol-3-yl)-1,2,4-oxadiazol-3-yl]cyclobutyl}pyridin-2-yl)pyrimidin-2-amine] are 7.52 and 6.19.

The term pIC50 denotes the negative decadic logarithm of the IC50, by convention in mol/L.
